In the assay the test system is Ls-174t human colon cancer. The assay can be described thus: Antitumor therapeutic efficacy test in vivo. On the set-up: species or system BALB/cA-nude mice. On the procedure:
[Antitumor Therapeutic Efficacy Test In Vivo]
Preparation methods: The drug was diluted with saline solution to required concentration.
Experimental animals: BALB/cA-nude mice, 6-7 weeks, ♀, purchased from Shanghai Slac Laboratory Animal Co., LTD. […] Environment: SPF level.
After tumors grew to the 150-300 mm^3, mice were randomly divided into teams (d0). The volume of tumors and the weight of the mice were measured and recorded for 2-3 times per week. The tumor volume (V) was calculated by the follow equation: V=½×a×b^2 wherein a, b represent length and width respectively.

Each structure is given as a SMILES string. Structures can show the parent of a compound that is named as a salt.

As to `CCc1c2c(nc3ccc(OC(=O)N4CCC(N5CCCCC5)CC4)cc13)-c1cc3c(c(=O)n1C2)COC(=O)[C@]3(O)CC` [CPT-11, Irinotecan hydrochloride], the “growth of Ls-174t human colon cancer in nude mice” value is reported as “inhibited the growth of Ls-174t human colon cancer in nude mice significantly”. Besides, for the setting “10 mg/kg, IV, D0, 3”, the “% T/C D12” value worked out at 45% and the “Tumor inhibition rate (%) D12” value is 55%. In addition, the Partial regression (10 mg/kg, IV, D0, 3, number of animals) was 0.

(Values after patent US10022365B2 (Jiangsu Hengrui Medicine Co., Ltd., priority 2009, dated 2018).)
